{"source": "patent US7880021B2", "about": "“Compounds and kits for the detection and the quantification of cell apoptosis” (Centre National de la Recherche Scientifique (CNRS), priority 2005, dated 2011)", "test_system": "CEM T cells", "assay": "Emission spectra in living and apoptotic cell suspensions, and Ca2+ dependence", "type": "cell-based, human", "method": "FIG. 3: Emission spectra of the probe F2N12S in living (solid line) and apoptotic (dash line) CEM cells. Excitation wavelength was 400 nm. Final probe concentration was 0.1 μM.\nFIG. 4: Ca^2+ dependence of F2N12S emission spectra in apoptotic CEM cells. The excitation wavelength was 400 nm. The spectra were recorded at Ca^2+ concentrations of 0.2, 0.4, 0.8, 1.2 and 2 mM and normalized. Final probe concentration was 0.1 μM.\nHuman lymphoid CEM T cells were cultured in X-vivo 15 medium (Cambrex, France) at 37° C. in humidified 5% CO2 atmosphere. Cell viability was checked by trypan blue exclusion. Cells were seeded at 5×10^5 cells/ml in the presence or absence of actinomycin D (0.5 μg/ml) for 18 h. […]\nThe cells were washed twice by HBSS before each experiment to eliminate fetal bovine serum. […] For fluorescence measurements with the probe of the invention F2N12S (fluorometry, flow cytometry and confocal microscopy), cells were resuspended in HBSS with 0.1 μM F2N12S. […] The staining pattern of the cells was checked with a Confocal Imaging System MRC-1024 (BioRad) to ascertain that fluorescence originates from the plasma membrane.\nFluorescence spectra were recorded on a FLUOROMAX-3® (spectrofluorometer) (JobinYvon Horiba). The excitation wavelength for fluorescence emission spectra of F2N12S probes was 400 nm. […]"}
{"substance": "1-dodecanaminium, N-[[2-[4-Diethylaminophenyl]-3-hydroxychromon-6-yl]-methyl]-N-methyl-N-(3-sulfopropyl)-, inner salt [F2N12S]", "values": [{"measurement": "relative intensity of the short-wavelength band, apoptotic versus living cells", "setting": "actinomycin D-induced apoptosis, cells sorted with FITC-annexin, excitation 400 nm, probe 0.1 μM", "value": "~2", "unit": "fold"}, {"measurement": "dependence of the response on Ca2+ concentration", "setting": "apoptotic cells, Ca2+ 0-2 mM", "value": "insensitive"}]}
